# Results: article PMC7914897, “Cytotoxic Potential of a-Azepano- and 3-Amino-3,4-SeCo-Triterpenoids” (International Journal of Molecular Sciences, 2021)
# How the values were obtained:
# Prostate cancer subpanel = test: NCI-60 screen, subpanel; settings: Homo sapiens
# SK-MEL-5 (Melanoma) = test: NCI-60 screen (SRB, 48 h); settings: Homo sapiens
# COLO 205 (Colon cancer) = test: NCI-60 screen (SRB, 48 h); settings: Homo sapiens
# SNB-19 (CNS cancer) = test: NCI-60 screen (SRB, 48 h); settings: Homo sapiens
# [1] = system: NCI-H460 (NSC lung cancer); test: NCI-60 screen (SRB, 48 h)
# SK-MEL-2 (Melanoma) = test: NCI-60 screen (SRB, 48 h); settings: Homo sapiens
# [2] = system: NCI-H226 (NSC lung cancer); test: NCI-60 screen (SRB, 48 h)
# MCF7 (Breast cancer) = test: NCI-60 screen (SRB, 48 h); settings: Homo sapiens
# Melanoma subpanel = test: NCI-60 screen, subpanel; settings: Homo sapiens
# U251 (CNS cancer) = test: NCI-60 screen (SRB, 48 h)
# Renal Cancer subpanel = test: NCI-60 screen, subpanel; settings: Homo sapiens
# SK-OV-3 (Ovarian cancer) = test: NCI-60 screen (SRB, 48 h); settings: Homo sapiens
# SK-MEL-28 (Melanoma) = test: NCI-60 screen (SRB, 48 h)
# HOP-62 (NSC lung cancer) = test: NCI-60 screen (SRB, 48 h); settings: Homo sapiens
# CCRF-CEM (Leukemia) = test: NCI-60 screen (SRB, 48 h); settings: Homo sapiens
# Breast cancer subpanel = test: NCI-60 screen, subpanel; settings: Homo sapiens
# MOLT-4 (Leukemia) = test: NCI-60 screen (SRB, 48 h); settings: Homo sapiens
# [3] = system: MDA-MB-31/ATCC (Breast cancer); test: NCI-60 screen (SRB, 48 h); settings: Homo sapiens
# [4] = system: MDA-MB-468 (Breast cancer); test: cells; settings: Homo sapiens
# SNB-75 (CNS cancer) = test: NCI-60 screen (SRB, 48 h); settings: Homo sapiens
# HCC-2998 (Colon cancer) = test: NCI-60 screen (SRB, 48 h); settings: Homo sapiens
# RPMI-8226 (Leukemia) = test: NCI-60 screen (SRB, 48 h); settings: Homo sapiens
# Leukemia subpanel = test: cells; settings: Homo sapiens
# MALME-3M (Melanoma) = test: NCI-60 screen (SRB, 48 h); settings: Homo sapiens
# OVCAR-3 (Ovarian cancer) = test: cells; settings: Homo sapiens
# EKVX (NSC lung cancer) = test: NCI-60 screen (SRB, 48 h); settings: Homo sapiens
# OVCAR-5 (Ovarian cancer) = test: NCI-60 screen (SRB, 48 h); settings: Homo sapiens
# MDA-MB-435 (Melanoma) = test: NCI-60 screen (SRB, 48 h); format: cell-based; settings: Homo sapiens
# 786-0 (Renal cancer) = test: NCI-60 screen (SRB, 48 h); settings: Homo sapiens
smiles,measurement,setting,value
"C[C@H]1[C@H](C)CC[C@]2(CO)CC[C@]3(C)C(=CC[C@@H]4[C@@]5(C)CCCNC(C)(C)[C@@H]5CC[C@]43C)[C@H]12 [Compound 4, azepanouvaol]",IC (TGI),"Prostate cancer subpanel; 48 h, read-out: TGI MG_MID",3.06 µM
same,GI50,Prostate cancer subpanel; read-out: GI50 MG_MID,1.64 µM
same,CC50,Prostate cancer subpanel; read-out: LC50 MG_MID,5.7 µM
same,GI50,SK-MEL-5 (Melanoma); SK-MEL-5,1.7 µM
same,IC (TGI),"SK-MEL-5 (Melanoma); SK-MEL-5, 48 h, read-out: TGI",3.09 µM
same,CC50,"SK-MEL-5 (Melanoma); SK-MEL-5, read-out: LC50",5.62 µM
same,GI50,COLO 205 (Colon cancer); COLO 205,1.74 µM
same,IC (TGI),"COLO 205 (Colon cancer); COLO 205, 48 h, read-out: TGI",3.46 µM
same,CC50,"COLO 205 (Colon cancer); COLO 205, read-out: LC50",6.86 µM
same,GI50,SNB-19 (CNS cancer); SNB-19,1.86 µM
same,IC (TGI),"SNB-19 (CNS cancer); SNB-19, 48 h, read-out: TGI",3.43 µM
same,CC50,"SNB-19 (CNS cancer); SNB-19, read-out: LC50",6.31 µM
same,GI50,"[1]; Homo sapiens, NCI-H460",1.78 µM
same,IC (TGI),"[1]; Homo sapiens, NCI-H460, 48 h, read-out: TGI",3.35 µM
same,CC50,"[1]; Homo sapiens, NCI-H460, read-out: LC50",6.3 µM
same,Growth % of the Most Sensitive Cell Lines,"[1]; NCI-H460, 1 dose 10 µM",−83.30%
same,GI50,SK-MEL-2 (Melanoma); SK-MEL-2,1.9 µM
same,IC (TGI),"SK-MEL-2 (Melanoma); SK-MEL-2, 48 h, read-out: TGI",3.63 µM
same,CC50,"SK-MEL-2 (Melanoma); SK-MEL-2, read-out: LC50",6.91 µM
same,GI50,"[2]; Homo sapiens, NCI-H226",2.07 µM
same,IC (TGI),"[2]; Homo sapiens, NCI-H226, 48 h, read-out: TGI",4.25 µM
same,Growth % of the Most Sensitive Cell Lines,"[2]; NCI-H226, 1 dose 10 µM",−99.04%
same,GI50,MCF7 (Breast cancer); MCF7,1.58 µM
same,IC (TGI),"MCF7 (Breast cancer); MCF7, 48 h, read-out: TGI",3.39 µM
same,CC50,"MCF7 (Breast cancer); MCF7, read-out: LC50",7.28 µM
same,IC (TGI),"Melanoma subpanel; 48 h, read-out: TGI MG_MID",3.32 µM
same,GI50,Melanoma subpanel; read-out: GI50 MG_MID,1.74 µM
same,CC50,Melanoma subpanel; read-out: LC50 MG_MID,6.36 µM
same,GI50,"U251 (CNS cancer); Homo sapiens, U-251",1.67 µM
same,IC (TGI),"U251 (CNS cancer); Homo sapiens, U-251, 48 h, read-out: TGI",3.15 µM
same,CC50,"U251 (CNS cancer); Homo sapiens, U-251, read-out: LC50",5.94 µM
same,Growth % of the Most Sensitive Cell Lines,"U251 (CNS cancer); U251, 1 dose 10 µM",−83.30%
same,IC (TGI),"Renal Cancer subpanel; 48 h, read-out: TGI MG_MID",3.2 µM
same,GI50,Renal Cancer subpanel; read-out: GI50 MG_MID,1.47 µM
same,CC50,Renal Cancer subpanel; read-out: LC50 MG_MID,6.11 µM
same,GI50,SK-OV-3 (Ovarian cancer); SK-OV-3,2.54 µM
same,IC (TGI),"SK-OV-3 (Ovarian cancer); SK-OV-3, 48 h, read-out: TGI",3.97 µM
same,CC50,"SK-OV-3 (Ovarian cancer); SK-OV-3, read-out: LC50",35.2 µM
same,GI50,"SK-MEL-28 (Melanoma); Homo sapiens, SK-MEL-28",1.75 µM
same,IC (TGI),"SK-MEL-28 (Melanoma); Homo sapiens, SK-MEL-28, 48 h, read-out: TGI",3.3 µM
same,CC50,"SK-MEL-28 (Melanoma); Homo sapiens, SK-MEL-28, read-out: LC50",6.22 µM
same,Growth % of the Most Sensitive Cell Lines,"SK-MEL-28 (Melanoma); SK-MEL-28, 1 dose 10 µM",−84.86%
same,GI50,HOP-62 (NSC lung cancer); HOP-62,1.81 µM
same,IC (TGI),"HOP-62 (NSC lung cancer); HOP-62, 48 h, read-out: TGI",3.49 µM
same,CC50,"HOP-62 (NSC lung cancer); HOP-62, read-out: LC50",6.52 µM
same,GI50,CCRF-CEM (Leukemia),1.74 µM
same,IC (TGI),"CCRF-CEM (Leukemia); 48 h, read-out: TGI",3.93 µM
same,CC50,CCRF-CEM (Leukemia); read-out: LC50,8.88 µM
same,IC (TGI),"Breast cancer subpanel; 48 h, read-out: TGI MG_MID",3.69 µM
same,GI50,Breast cancer subpanel; read-out: GI50 MG_MID,1.74 µM
same,CC50,Breast cancer subpanel; read-out: LC50 MG_MID,12.6 µM
same,GI50,MOLT-4 (Leukemia); MOLT-4,1.37 µM
same,IC (TGI),"MOLT-4 (Leukemia); MOLT-4, 48 h, read-out: TGI",3.15 µM
same,CC50,"MOLT-4 (Leukemia); MOLT-4, read-out: LC50",7.25 µM
same,GI50,[3],1.88 µM
same,IC (TGI),"[3]; 48 h, read-out: TGI",3.48 µM
same,CC50,[3]; read-out: LC50,6.43 µM
same,GI50,[4]; MDA-MB-468,1.7 µM
same,IC (TGI),"[4]; MDA-MB-468, 48 h, read-out: TGI",3.44 µM
same,CC50,"[4]; MDA-MB-468, read-out: LC50",6.98 µM
same,GI50,SNB-75 (CNS cancer); SNB-75,1.49 µM
same,IC (TGI),"SNB-75 (CNS cancer); SNB-75, 48 h, read-out: TGI",2.9 µM
same,CC50,"SNB-75 (CNS cancer); SNB-75, read-out: LC50",5.63 µM
same,GI50,HCC-2998 (Colon cancer); HCC 2998,1.75 µM
same,IC (TGI),"HCC-2998 (Colon cancer); HCC 2998, 48 h, read-out: TGI",3.46 µM
same,CC50,"HCC-2998 (Colon cancer); HCC 2998, read-out: LC50",6.85 µM
same,GI50,RPMI-8226 (Leukemia); RPMI-8226,1.85 µM
same,IC (TGI),"RPMI-8226 (Leukemia); RPMI-8226, 48 h, read-out: TGI",4.15 µM
same,CC50,"RPMI-8226 (Leukemia); RPMI-8226, read-out: LC50",9.27 µM
same,IC (TGI),"Leukemia subpanel; 48 h, read-out: TGI MG_MID",3.28 µM
same,GI50,Leukemia subpanel; read-out: GI50 MG_MID,1.32 µM
same,CC50,Leukemia subpanel; read-out: LC50 MG_MID,8.02 µM
same,GI50,MALME-3M (Melanoma),1.68 µM
same,IC (TGI),"MALME-3M (Melanoma); 48 h, read-out: TGI",3.44 µM
same,CC50,MALME-3M (Melanoma); read-out: LC50,7.08 µM
same,GI50,OVCAR-3 (Ovarian cancer); OVCAR-3,1.83 µM
same,IC (TGI),"OVCAR-3 (Ovarian cancer); OVCAR-3, 48 h, read-out: TGI",3.42 µM
same,CC50,"OVCAR-3 (Ovarian cancer); OVCAR-3, read-out: LC50",6.39 µM
same,GI50,EKVX (NSC lung cancer),1.66 µM
same,IC (TGI),"EKVX (NSC lung cancer); 48 h, read-out: TGI",3.29 µM
same,CC50,EKVX (NSC lung cancer); read-out: LC50,6.53 µM
same,GI50,OVCAR-5 (Ovarian cancer); OVCAR-5,1.69 µM
same,IC (TGI),"OVCAR-5 (Ovarian cancer); OVCAR-5, 48 h, read-out: TGI",3.18 µM
same,CC50,"OVCAR-5 (Ovarian cancer); OVCAR-5, read-out: LC50",5.99 µM
same,GI50,MDA-MB-435 (Melanoma); MDA-MB-435,1.59 µM
same,IC (TGI),"MDA-MB-435 (Melanoma); MDA-MB-435, 48 h, read-out: TGI",3.21 µM
same,CC50,"MDA-MB-435 (Melanoma); MDA-MB-435, read-out: LC50 (the source's name)",6.49 µM
same,GI50,786-0 (Renal cancer); 786-0,1.6 µM
same,IC (TGI),"786-0 (Renal cancer); 786-0, 48 h, read-out: TGI",3.06 µM
same,CC50,"786-0 (Renal cancer); 786-0, read-out: LC50",5.85 µM
